One experiment deals with T1, LSD1 (Homo sapiens, UniProt O60341).
T1 construct: made in house
Kind of experiment: Biochemical assay for LSD-1 activity (luminescence, H3K4 dimethylated peptide substrate). As to conditions: average of two or more tests; 30 min preincubation of enzyme and compound; read-out: LSD1 PIC50 MEAN (converted). As to the method: Biochemical Assay for LSD-1 Activity
The LSD-1 luminescence assay is performed in a buffer containing 25 mM Tris, pH 7.5, 50 mM potassium chloride, 0.02% heat-denatured BSA, 2 mM CHAPS and milliQ ultrapure water. […] The enzyme and test compound are allowed to incubate together for 30 minutes at room temperature. Two microliters of the substrate mix are then added to each well of the plate to initiate the reaction. The plates are covered, protected from light and allowed to incubate for two hours at room temperature. Then, 4 uL of HyPerBlu peroxide detection luminescence reagent (Lumigen/Beckman Coulter, cat# HPB-00005) is added to each well to quench the demethylase reaction and generate the peroxide-dependent luminescence signal. The plates are then incubated for 15-30 minutes in the dark at room temperature prior to being read for Luminescence using a Perkin Elmer Viewlux plate reader. Percent inhibition is calculated based on no compound and no enzyme controls, and inhibition curves are then plotted to determine PIC50 values.

The target in another experiment is T2, MAO-B (Homo sapiens, UniProt P27338).
T2 construct: purchased Gentest-BD Biosciences 456284
T2 sequence (P27338 1-520): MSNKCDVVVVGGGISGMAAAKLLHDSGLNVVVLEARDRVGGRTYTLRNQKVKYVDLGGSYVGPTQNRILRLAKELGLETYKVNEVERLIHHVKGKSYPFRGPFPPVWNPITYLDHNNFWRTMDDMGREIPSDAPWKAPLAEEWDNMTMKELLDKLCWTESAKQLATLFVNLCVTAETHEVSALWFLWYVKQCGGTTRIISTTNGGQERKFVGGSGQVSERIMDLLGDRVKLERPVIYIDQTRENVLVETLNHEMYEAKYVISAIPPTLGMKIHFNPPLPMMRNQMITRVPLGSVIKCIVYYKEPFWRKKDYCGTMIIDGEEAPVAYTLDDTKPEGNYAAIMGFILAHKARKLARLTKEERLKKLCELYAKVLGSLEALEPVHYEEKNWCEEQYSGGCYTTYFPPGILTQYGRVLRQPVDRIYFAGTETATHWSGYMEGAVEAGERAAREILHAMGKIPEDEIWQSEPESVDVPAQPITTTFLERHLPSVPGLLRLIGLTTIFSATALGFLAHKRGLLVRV
Kind of experiment: Biochemical assay for MAO-B activity (FLINT, benzylamine/amplex red). The note with it: average of two or more tests; 30 min preincubation of enzyme and compound; read-out: MAOB PIC50 MEAN (converted). Here is the method:
Biochemical Assay for MAO-B Activity
The MAO-B FLINT assay is performed in a buffer containing 50 mM potassium phospate, pH 7.4, in milliQ ultrapure water. […] The enzyme and test compound are allowed to incubate together for 30 minutes at room temperature. Five microliters of the substrate mix are then added to each well of the plate to initiate the reaction. The plates are covered, protected from light and allowed to incubate for one hour at room temperature. […] Percent inhibition is calculated based on no compound and no enzyme controls, and inhibition curves are then plotted to determine PIC50 values.

Structures can show the parent of a compound that is named as a salt.

Turning to `c1ccc(CN2CCC(CN[C@@H]3C[C@H]3c3ccccc3)CC2)cc1` (relative stereo) [Example 8, [trans-2-Phenylcyclopropyl]{[1-(phenylmethyl)-4-piperidinyl]methyl}amine], the IC50 on LSD1 is 0.00631 µM; on MAO-B it was 25.1 µM.

Turning to `c1ccc(C2C[C@@H]2NCC2CCCNCC2)cc1` (stereo in doubt) [Example 22, N-(Hexahydro-1H-azepin-4-ylmethyl)-trans-2-phenylcyclopropanamine], the IC50 at LSD1 is 0.0794 µM; on MAO-B, 100 µM.

Regarding `O=C(O)c1ccc(CCCN2CCC(CN[C@@H]3C[C@H]3c3ccccc3)CC2)cc1` [Example 30, 4-{3-[4-({[(1R,2S)-2-Phenylcyclopropyl]amino}methyl)-1-piperidinyl]propyl}benzoic acid 2 HCl], the IC50 on LSD1 was 0.0126 µM; on MAO-B it was 31.6 µM.

For `Cc1cc(CN2CCC(CN[C@@H]3C[C@H]3c3ccccc3)CC2)no1` (relative stereo) [Example 47, trans-N-((1-((5-Methylisoxazol-3-yl)methyl)piperidin-4-yl)methyl)-2-phenylcyclopropanamine], the IC50 at LSD1 is 0.1 µM; on MAO-B, 15.8 µM.

As for `c1ccc([C@@H]2C[C@H]2NCC2CCN(Cc3ccncc3)CC2)cc1` (relative stereo) [Example 33, trans-2-Phenyl-N-((1-(pyridin-4-ylmethyl)piperidin-4-yl)methyl)cyclopropanamine], the results for the IC50 on LSD1 and at MAO-B were 0.0158 µM and 50.1 µM, respectively.

Take `O=C(c1ccccc1)N1CCC(CN[C@@H]2C[C@H]2c2ccccc2)CC1` (relative stereo) [Example 14, Phenyl(4-(((trans-2-phenylcyclopropyl)amino)methyl)piperidin-1-yl)methanone]: the IC50 is 0.126 µM on LSD1 and 39.8 µM on MAO-B.

As to `CC(C)(C)OC(=O)N[C@H]1CC[C@H](CN[C@@H]2C[C@H]2c2ccccc2)CC1` (relative stereo) [Example 9, 1,1-Dimethylethyl[trans-4-({[trans-2-phenylcyclopropyl]amino}methyl)cyclohexyl]carbamate], the IC50 at LSD1 was 0.158 µM; on MAO-B, 0.398 µM.

With `N[C@H]1CC[C@H](CN[C@@H]2C[C@H]2c2ccccc2)CC1` (relative stereo) [Example 10, trans-4-({[trans-2-Phenylcyclopropyl]amino}methyl)cyclohexanamine], the values for the IC50 on LSD1 and on MAO-B were 0.00794 µM and 7.94 µM, respectively.

Turning to `CN(CC1CCNCC1)[C@H]1CC1c1ccccc1` (stereo partly drawn) [Example 19], the IC50 on MAO-B was 31.6 µM.

For `O=C(O)c1ccc(CN2CC[C@@H](CN[C@@H]3C[C@H]3c3ccccc3)C2)cc1` [Example 28b, 4-{[(3S)-3-({[(1R,2S)-2-Phenylcyclopropyl]amino}methyl)-1-pyrrolidinyl]methyl}benzoic acid], the IC50 on LSD1 is 0.0794 µM; at MAO-B it was 25.1 µM.

In the case of `CN(CCC1CCNCC1)[C@@H]1C[C@H]1c1ccccc1` (relative stereo) [Example 77, trans-N-Methyl-2-phenyl-N-(2-(piperidin-4-yl)ethyl)cyclopropanamine], the IC50 on LSD1 was 0.2 µM; on MAO-B, 31.6 µM.

Regarding `OB1OCc2c(CN3CCC(CN[C@@H]4C[C@H]4c4ccccc4)CC3)cccc21` (relative stereo) [Example 55, 4-((4-(((trans-2-Phenylcyclopropyl)amino)methyl)piperidin-1-yl)methyl)benzo[c][1,2]oxaborol-1(3H)-ol], the IC50 was 0.0251 µM at LSD1 and 7.94 µM at MAO-B.

Regarding `O=C(O)c1ccc(CN2CC[C@H](CN[C@@H]3C[C@H]3c3ccccc3)C2)cc1` [Example 28a, 4-{[(3R)-3-({[(1R,2S)-2-Phenylcyclopropyl]amino}methyl)-1-pyrrolidinyl]methyl}benzoic acid], the IC50 at LSD1 was 0.158 µM; at MAO-B, 31.6 µM.

As for `CC(=O)N(CC1CCNCC1)[C@@H]1C[C@H]1c1ccccc1` (relative stereo) [Example 17, N-(trans-2-Phenylcyclopropyl)-N-(piperidin-4-ylmethyl)acetamide], the IC50 at LSD1 is 20 µM; on MAO-B it was 63.1 µM.
